The source of these data is article PMC6274350, “Design, Synthesis, and Cytotoxicity of 5-Fluoro-2-methyl-6-(4-aryl-piperazin-1-yl) Benzoxazoles” (Molecules, 2016).

A short description of series [1]: CellTiter-Glo luminescent cell viability (cytotoxicity) assay on hepatocytes. To be noted: human, Liver cells, hepatocytes (HepaRG), 24 h, vs DMSO vehicle. It is filed as cell-based, human. The procedure:
(§1) The cytotoxicity of prepared benzoxazoles (7a–j) and intermediates (6a–j and 9) were measured by applying the CellTiter-Glo® luminescent cell proliferation assay (G755A, Promega, Madison, WI, USA). This method permits the determination of viable cells numbers in the culture based on quantitation of the ATP present, which denotes the presence of metabolically active cells. In vitro cytotoxicity analysis was overall performed following the protocol as described in “Guidance Document on Using in Vitro Data to Estimate in Vivo Starting Doses for Acute Toxicity Based on Recommendations” [18]. Human A-549 cells are human lung cancer epithelial cells, which were chosen as the tumor model, whereas the HepaRG™ cell line is a classic hepatic cell line that retains many characteristics of primary human hepatocytes. HepaRG™ cells are terminally differentiated.
(§2) Human cell cultures: Hepatocytes (HepaRG^TM cells) were obtained from Life Technologies, and were cultivated in William’s E Medium (Gibco, Life Technologies, Waltham, MA, USA) and supplemented with 1x GlutaMAX™ plus 1x HepaRG^TM General Purpose Medium Supplement in 25-cm^2 or 75-cm^2 flasks (TPP, Trasadingen, Switzerland) at 37 °C and 5% CO2. Lung cancer epithelial cells A-549 were propagated in Epilife Medium (Gibco, Life Technologies; MEPICF) and combined with CaCl2 and 1x-growth-supplement containing penicillin and streptomycin (Gibco, Life Technologies). For sub-culturing, cells were split at a ratio of 1:4 to 1:8. For cryopreservation, cells were frozen in 10% DMSO in liquid nitrogen.
(§3) Human cytotoxicity assay: Human hepatocytes or human lung carcinoma cells were seeded into sterile black clear-bottomed polystyrene Corning® CellBind® 96-well plates (Munich, Germany) at a density of 20,000 cells/well after calculating cell numbers from trypsinized samples in a classical Neubauer Improved hemocytometer (VWR, Munich, Germany). The cells were grown for 24 h at 37 °C in a 5% CO2 atmosphere in Epilife medium (keratinocytes) or William′s E medium (hepatocytes). After a 24-h recovery period, media were removed from the wells by aspiration. The cells were then immediately exposed to the respective test compounds or reference antibiotics (prepared in advance in 100 µL of the same media) for 24 h 37 °C with 5% CO2. The concentration tested ranged from 0.1 µM to 500 µM (0.1 µM, 1 µM, 10 µM, 50 µM, 100 µM, 250 µM, and 500 µM) and was formulated as a 100× concentrated stock each, resulting in a final constant DMSO concentration of 1% per 100-µL sample volume. Test series were each performed in triplicate, and additionally included a vehicle reference (DMSO only) plus another internal control for evaluating overall assay performance. Additionally, cells were visually examined under a light microscope for any morphological abnormalities relative to the untreated cells. Subsequently, cell viability, as an indicator of potential cytotoxicity, was measured by applying the CellTiter-Glo® luminescent cell proliferation assay (G755A, Promega, Madison, WI, USA). This method permits the determination of the number of viable cells in culture based on quantitation of the ATP present, which denotes the presence of metabolically active cells. To this end, 100 µL (equal to the volume of culture medium) of the kit-provided CellTiter-Glo® reagent (reconstituted by transferring the thawed CellTiter-Glo® buffer to the lyophilized enzyme and substrate mixture) was directly added to each well with a repetitive dispensing pipette. The contents were then mixed for 2 min at room temperature on an orbital minishaker (IKA® MS3 digital, Staufen, Germany) at 450 rpm to induce efficient cell lysis, and then further incubated for 10 min at room temperature for stabilization of the resultant luminescent signal. […]

The subject of series [2] is HepaRG cells (liver cells, hepatocytes). Described as above. It is filed as cell-based, human. To be noted: for Toxicity to healthy cells versus lung cancer cells: 50 µM, HepaRG vs A-549. The procedure: as §1, §2, §3
Series [3] concerns A-549 lung carcinoma cells. In words: CellTiter-Glo luminescent cell viability (cytotoxicity) assay on lung cancer cells. To be noted: for viability at 0.1 µM / viability at 1 µM / viability at 10 µM / viability at 50 µM / viability at 100 µM / viability at 250 µM / viability at 500 µM: Homo sapiens, A549, Lung cancer cells (A-549), 24 h, vs DMSO vehicle. It is filed as cell-based, human. The procedure: as §1, §2, §3

A short description of series [4]: Visible solubility / precipitation of test compounds in cell-culture media. It counts as physicochemical. To be noted: for Solubility at test concentrations: cell-culture media, 0.1-500 µM. The procedure: Since the majority of test compound solutions with concentrations above 50 µM precipitated in cell-culture media, we performed cytotoxicity assays for healthy and cancer cells at 50 µM.

Take `O=[N+]([O-])c1cc(F)c(N2CCN(c3ccc(F)cc3)CC2)cc1O` [Compound 6d, 4-Fluoro-5-[4-(4-fluoro-phenyl)-piperazin-1-yl]-2-nitro-phenol]: the melting point lay within 151 to 152 °C. Moreover, in series [1], the viability at 24 h, 0.1 µM worked out at 94%; the viability at 24 h, 1 µM was 87%; the viability at 24 h, 10 µM is 101%; the viability at 24 h, 50 µM was found to be 57%. In series [1], the viability at 24 h, 100 µM was 62%; the viability at 24 h, 250 µM was determined as 44%; the viability at 24 h, 500 µM stood at 13%. Moreover, the CT50 in series [2] (hepatocytes (HepaRG), equal toxicity to both cell lines) is listed as ~ 50 µM. The CT50 in series [3] (A-549 lung cancer cells, equal toxicity to both cell lines) was ~ 50 µM. In series [3], the viability at 0.1 µM turned out to be 103%, the viability at 1 µM is 111%, the viability at 10 µM was found to be 78% and the viability at 50 µM amounted to 58%. In series [3], the viability at 100 µM amounted to 54%, the viability at 250 µM was found to be 46% and the viability at 500 µM worked out at 34%. Moreover, in series [4], the “Solubility at test concentrations” value is reported as “completely soluble at all concentrations”.
With `COc1cccc2c1C(=O)c1c(O)c3c(c(O)c1C2=O)C[C@@](O)(C(=O)CO)C[C@@H]3O[C@H]1C[C@H](N)[C@H](O)[C@H](C)O1` [doxorubicine, reference compound], the half-inhibitory concentration (IC50) in series [2] (Homo sapiens, HepaRG cells, standard) was 5.1 µM.
For the molecule `Cc1nc2cc(F)c(N3CCN(c4ccc(Cl)c(Cl)c4)CC3)cc2o1` [Compound 7j, 6-[4-(3,4-Dichloro-phenyl)-piperazin-1-yl]-5-fluoro-2-methyl-benzooxazole], the melting point is 147 to 148 °C. Further, in series [1], the viability at 24 h, 0.1 µM turned out to be 100%; the viability at 24 h, 1 µM was determined as 90%; the viability at 24 h, 10 µM came to 85%; the viability at 24 h, 50 µM is 65%. Further, in series [1], the viability at 24 h, 100 µM stood at 27%; the viability at 24 h, 250 µM came to 7%; the viability at 24 h, 500 µM worked out at 7%. The “Toxicity to healthy cells versus lung cancer cells” value in series [2] is “more toxic to healthy cells compared with lung cancer cells”. In series [3], the viability at 0.1 µM amounted to 98%, the viability at 1 µM turned out to be 94%, the viability at 10 µM was 81% and the viability at 50 µM is 70%. Further, in series [3], the viability at 100 µM turned out to be 47% and the viability at 250 µM amounted to 28%. Also, the “Precipitation in cell-culture media” value in series [4] (50 µM, no conclusion on cytotoxicity possible) is listed as “precipitation problem”.
`Cc1nc2cc(F)c(N3CCN(c4ccccc4O)CC3)cc2o1` [Compound 7f, 2-[4-(5-Fluoro-2-methyl-benzooxazol-6-yl)-piperazin-1-yl]-phenol] registered a melting point of 172 to 173 °C. In series [1], the viability at 24 h, 0.1 µM amounted to 106%; the viability at 24 h, 1 µM was 97%; the viability at 24 h, 10 µM was 86%; the viability at 24 h, 50 µM turned out to be 59%. Further, in series [1], the viability at 24 h, 100 µM worked out at 60%; the viability at 24 h, 250 µM stood at 53%; the viability at 24 h, 500 µM amounted to 54%. Besides, in series [3], the viability at 0.1 µM turned out to be 103%, the viability at 1 µM amounted to 99%, the viability at 10 µM worked out at 91% and the viability at 50 µM amounted to 91%. In series [3], the viability at 100 µM turned out to be 95%, the viability at 250 µM was found to be 83% and the viability at 500 µM turned out to be 63%. For the same molecule, in series [4], the “Solubility at test concentrations” value was “completely soluble at all concentrations”.
Turning to `Cc1ccc(N2CCN(c3cc4oc(C)nc4cc3F)CC2)cc1` [Compound 7b, 5-Fluoro-2-methyl-6-(4-p-tolyl-piperazin-1-yl)-benzooxazole], the melting point lay within 168 to 170 °C. Also, in series [1], the viability at 24 h, 0.1 µM came out at 105%; the viability at 24 h, 1 µM is 99%; the viability at 24 h, 10 µM came out at 91%; the viability at 24 h, 50 µM worked out at 63%. The viability at 24 h, 100 µM in series [1] was 60%. In series [2], the “Toxicity to healthy cells versus lung cancer cells” value is listed as “more toxic to healthy cells compared with lung cancer cells”. In series [3], the viability at 0.1 µM amounted to 92%, the viability at 1 µM amounted to 94%, the viability at 10 µM came to 92% and the viability at 50 µM is 87%. In addition, the viability at 100 µM in series [3] is 75%.
